Data taken from patent US11865181B2, “Peptidic materials that traffic efficiently to the cell cytosol and nucleus” (Yale University, priority 2017, dated 2024).
Where two headings read alike, the source gives them in different places. Positions of bridges follow the written chain, without caps; N, C: chain ends. Non-standard residues stand in square brackets, D forms with d. Residues, ends and D or L forms follow the SMILES beside them. R8 = C=CCCCCCC[C@@](C)(N)C(=O)O; S5 = C=CCCC[C@](C)(N)C(=O)O

Legend:
[1] = tested on: hDM2-overexpressing SJSA-1 cells; type: cell-based
Experimental: SJSA-1 cells were seeded into a 96-well plate (2,000 cells/well) and incubated overnight at 37° C. After washing twice in PBS, cells are incubated with peptide or Nutlin-3a (Santa Cruz Biotechnology, Santa Cruz, Calif.) in Opti-MEM (Invitrogen, Carlsbad, Calif.) for 24 hours. Cell viability was then assayed using CellTiter-Glo (Promega, Madison, Wis.) according to the manufacturer's protocol. Luminescence measurements were taken on a SpectraMax M5 plate reader (Molecular Devices, Sunnyvale, Calif.).
Previously it has been shown that the efficacy with which hydrocarbon-stapled peptides reach the cytosol correlates with their efficacy in cell-based assays (LaRochelle et al., J. Am. Chem. Soc., 2015, 137, 2536-2541). To examine whether the biological activity of these penta-arg peptides correlated with how efficiently they accessed the cytosol, cell viability assays were performed using N-acetylated versions of the peptides and hDM2-overexpressing SJSA-1 cells (FIG. 4 and FIG. 5).

[2] = tested on: hDM2-overexpressing SJSA-1 cells; conditions: literature values (Bernal et al. 2007; 2010); read-out: previously reported EC50, SJSA-1 cell viability; cited from earlier work
HeLa cells = conditions: cited from earlier work

Molecule: CC(=O)N[C@@H](CC(C)C)C(=O)N[C@@H](CO)C(=O)N[C@@H](CCC(N)=O)C(=O)N[C@@H](CCC(=O)O)C(=O)N[C@H](C(=O)N[C@@H](Cc1ccccc1)C(=O)N[C@]1(C)CCCCCCC=CCCC[C@@](C)(C(=O)N[C@@H](CCCNC(=N)N)C(=O)N[C@@H](CCCNC(=N)N)C(N)=O)NC(=O)[C@H](CC(C)C)NC(=O)[C@H](CCCNC(=N)N)NC(=O)[C@H](CCCNC(=N)N)NC(=O)[C@H](Cc2c[nH]c3ccccc23)NC(=O)[C@H](CC(C)C)NC(=O)[C@H](CCCNC(=N)N)NC1=O)[C@@H](C)O [BP1.6^Ac, Ac-LSQETFR8RLWRRLS5RR-NH2] (Ac-LSQETF[R8]RLWRRL[S5]RR-NH2; staple 7-14)
- EC50 ([1]; 24 h): 1.9 µM

Molecule: CC(=O)N[C@@H](CC(C)C)C(=O)N[C@@H](CCCNC(=N)N)C(=O)N[C@@H](CCCNC(=N)N)C(=O)N[C@@H](CCC(=O)O)C(=O)N[C@H](C(=O)N[C@@H](Cc1ccccc1)C(=O)N[C@]1(C)CCCCCCC=CCCC[C@@](C)(C(=O)N[C@@H](CCCNC(=N)N)C(=O)N[C@@H](CC(N)=O)C(N)=O)NC(=O)[C@H](CC(C)C)NC(=O)[C@H](CCCNC(=N)N)NC(=O)[C@H](CCCCN)NC(=O)[C@H](Cc2c[nH]c3ccccc23)NC(=O)[C@H](CCCNC(=N)N)NC(=O)[C@H](CC(=O)O)NC1=O)[C@@H](C)O [BP1.5^Ac, Ac-LRRETFR8DRWKRLS5RN-NH2] (Ac-LRRETF[R8]DRWKRL[S5]RN-NH2; staple 7-14)
- EC50 ([1]; 24 h): 7.7 µM

Molecule: CC(=O)N[C@@H](CCCNC(=N)N)C(=O)N[C@@H](CO)C(=O)N[C@@H](CCC(N)=O)C(=O)N[C@@H](CCC(=O)O)C(=O)N[C@@H](CCCNC(=N)N)C(=O)N[C@@H](Cc1ccccc1)C(=O)N[C@]1(C)CCCCCCC=CCCC[C@@](C)(C(=O)N[C@@H](CCCNC(=N)N)C(=O)N[C@@H](CCCNC(=N)N)C(N)=O)NC(=O)[C@H](CC(C)C)NC(=O)[C@H](CCCNC(=N)N)NC(=O)[C@H](CCCCN)NC(=O)[C@H](Cc2c[nH]c3ccccc23)NC(=O)[C@H](CC(C)C)NC(=O)[C@H](CC(=O)O)NC1=O [BP1.4^Ac, Ac-RSQERFR8DLWKRLS5RR-NH2] (Ac-RSQERF[R8]DLWKRL[S5]RR-NH2; staple 7-14)
- EC50 ([1]; 24 h): 7.7 µM

Molecule: COc1ccc(C2=N[C@@H](c3ccc(Cl)cc3)[C@@H](c3ccc(Cl)cc3)N2C(=O)N2CCNC(=O)C2)c(OC(C)C)c1 [Nutlin-3a, reference compound]
- EC50 ([1]; 24 hours in Opti-MEM, N-acetylated peptides, read-out: EC50, decrease in SJSA-1 cell viability): 22.8 µM
- EC50 [2]: ~7 µM

Molecule: CC(=O)N[C@@H](CC(C)C)C(=O)N[C@@H](CO)C(=O)N[C@@H](CCC(N)=O)C(=O)N[C@@H](CCC(=O)O)C(=O)N[C@H](C(=O)N[C@@H](C)C(=O)N[C@]1(C)CCCCCCC=CCCC[C@@](C)(C(=O)N[C@@H](CCCNC(=N)N)C(=O)N[C@@H](CCCNC(=N)N)C(N)=O)NC(=O)[C@H](CC(C)C)NC(=O)[C@H](CCCNC(=N)N)NC(=O)[C@H](CCCNC(=N)N)NC(=O)[C@H](Cc2c[nH]c3ccccc23)NC(=O)[C@H](CC(C)C)NC(=O)[C@H](CCCNC(=N)N)NC1=O)[C@@H](C)O [BP1.6F19A^Ac, Ac-LSQETAR8RLWRRLS5RR-NH2] (Ac-LSQETA[R8]RLWRRL[S5]RR-NH2; staple 7-14)
- EC50 ([1]; 24 h): 4.8 µM

Molecule: CC(=O)N[C@@H](CCCNC(=N)N)C(=O)N[C@@H](CO)C(=O)N[C@@H](CCC(N)=O)C(=O)N[C@@H](CCCNC(=N)N)C(=O)N[C@@H](CCCNC(=N)N)C(=O)N[C@@H](Cc1ccccc1)C(=O)N[C@]1(C)CCCCCCC=CCCC[C@@](C)(C(=O)N[C@@H](CCC(=O)O)C(=O)N[C@@H](CC(N)=O)C(N)=O)NC(=O)[C@H](CC(C)C)NC(=O)[C@H](CC(C)C)NC(=O)[C@H](CCCNC(=N)N)NC(=O)[C@H](Cc2c[nH]c3ccccc23)NC(=O)[C@H](CC(=O)O)NC(=O)[C@H](CCCNC(=N)N)NC1=O [BP1.2^Ac, Ac-RSQRRFR8RDWRLLS5EN-NH2] (Ac-RSQRRF[R8]RDWRLL[S5]EN-NH2; staple 7-14)
- EC50 ([1]; 24 h): 1.9 µM

Molecule: Ac-LSQETFR8DLWKLLS5EN-NH2 (Ac-LSQETF[R8]DLWKLL[S5]EN-NH2; staple 7-14) [SAH-p53-4, reference compound]
- effect on SJSA-1 cell viability (in words) ([1]; concentrations as high as 60 μM, 24 hours): no decrease in viability
- ability to breach the plasma membrane as judged by flow cytometry (HeLa cells): fails to effectively breach the plasma membrane
